# Measured values from patent publication US6893846B2, “Primers for use in detecting beta-lactamases” (priority 1998, dated 2005).
# How the values were obtained:
# K. pneumoniae 225 [1] = assay: NCCLS disk diffusion assay; type: cell-based, Klebsiella pneumoniae; conditions: disk diffusion, Kleb 225
# [2] = tested on: beta-lactamases in sonic extracts of E. aerogenes; assay: Isoelectric focusing overlay: cefotaxime hydrolysis, inhibitors, induction; conditions: 0.75 μg/ml cefotaxime
# P. mirabilis = assay: Agar dilution MIC, South African isolates; type: cell-based, Proteus mirabilis; conditions: 4 strains, tzp with tazobactam 4 μg/ml
# Procedure, shortened: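 Clinical isolates from South African hospitals, intermediate or resistant to cefotaxime or ceftazidime and lacking inducible beta-lactamases, were tested by NCCLS M7-T2 agar dilution. Quality-control strains E. coli ATCC 25922 and 35218, P. aeruginosa ATCC 27853 and S. aureus ATCC 29213 were run alongside. Results were interpreted by NCCLS criteria.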
# [3] = tested on: E. coli C600 transconjugant; conditions: disk diffusion, Tc = transconjugate E. coli C600
# K. pneumoniae 225 [4] = assay: Three-dimensional test (enzymatic inactivation of antibiotics); conditions: beta-lactamase-mediated hydrolysis by K. pneumoniae 225, lawn E. coli ATCC 25922
# E. coli = assay: Agar dilution MIC, South African isolates; type: cell-based, Escherichia coli; conditions: tzp with tazobactam 4 μg/ml
# Description: The strains were provided in response to a request for all strains of Enterobacteriaceae, lacking inducible beta-lactamases, that were intermediate or resistant to cefotaxime or ceftazidime. […]
structure (smiles),measurement,setting,value
CO/N=C(\C(=O)N[C@@H]1C(=O)N2C(C(=O)O)=C(COC(C)=O)CS[C@H]12)c1csc(N)n1 [cefotaxime],Zone Size,K. pneumoniae 225 [1],15 mm
same,Ctx Hydrolysis,"[2]; SHV-3 strain (1), Bush group 1 enzyme pI 8.3",no
same,Ctx Hydrolysis,"[2]; SHV-3 strain (1), Bush group 2be enzyme pI 6.9",yes
same,Ctx Hydrolysis,"[2]; SHV-4 strains (29), Bush group 1 enzyme pI 8.3",no
same,Ctx Hydrolysis,"[2]; SHV-4 strains (29), Bush group 2be enzyme pI 7.8",yes
same,Ctx Hydrolysis,"[2]; SHV-5 strain (1), Bush group 1 enzyme pI 8.3",no
same,Ctx Hydrolysis,"[2]; SHV-5 strain (1), Bush group 2Be enzyme pI 8.0",yes
same,MIC range,P. mirabilis,0.25 to 0.5 µg/mL
same,Zone Size,[3],12 mm
same,three dimensional test,K. pneumoniae 225 [4],positive
same,MIC range,"E. coli; resistance phenotype Ec1, 3 strains",1 µg/mL
same,MIC range,"E. coli; resistance phenotype Ec2, 1 strain",16 µg/mL
